In patent EP0979653A1, “REMEDY FOR CHRONIC FATIGUE SYNDROME” (KANEBO, LTD., priority 1996, dated 1998):
Counter-ions that a name gives are not always drawn.

Tests used:
[1] = Measurement of DHAS concentration in plasma of patients with CFS given the injection intravenously; format: in vivo; conditions: human, iv, 100 mg, 100 mg intravenously daily for 14 days; for concentration at 13 h: 13 hours after administration; for concentration at 48 h / concentration at 72 h / concentration at 120 h / concentration at 192 h / concentration at 264 h / concentration at 336 h: before administration; for concentration at 72 h: 3 days; for concentration at 120 h: 5 days; for concentration at 192 h: 8 days; for concentration at 264 h: 11 days; for concentration at 336 h: 14 days
Description: (§1) An injection containing 100 mg of a test compound was intravenously administered to two patients with CFS (A, B), continuously, for 14 days. The measurement of DHAS concentration in plasma was conducted before administration and 13 hours after administration with respect to the first and second days, while the measurement was conducted before administration with regard to the third, fifth, eighth, eleventh and fourteenth days. On the fourteenth day from the day on which first administration was conducted, the patients were questioned about lassitude, weakness and psychoneurotic symptom.

^51Cr-labelled K562 = experiment: Natural killer (NK) activity of patient B, cytotoxic activity against 51Cr-labelled target cells; format: in vivo, human
Description: as §1
With regard to the patient B, a natural killer (NK) activity was measured after administration on the first day and before administration on the fifteenth day. The measurement of the NK activity was conducted in accordance with the method described in Later Biological Experimental Course, No. 5, Process for Study of Immunobiochemistry (Incorporation of The Japanese Biochemistry Society ed., published by Tokyo Kagaku Dojin Co.), page 186. That is, the NK activity was measured by using, as an indication, a cytotoxic activity determined by using ^51Cr-labelled K562 as a target cell. Incidentally, a ratio of effector cell to target cell (E/T ratio) was set at 10:1 or 20:1.

patients with CFS = experiment: Questioning of patients with CFS about lassitude, weakness and psychoneurotic symptom; format: in vivo, human; conditions: 100 mg intravenously daily for 14 days
Description: as §1

SMILES: C[C@]12CC[C@H](OS(=O)(=O)O)CC1=CC[C@@H]1[C@@H]2CC[C@]2(C)C(=O)CC[C@@H]12 [Sodium salt of DHAS, dehydroepiandrosterone sulfate]
- concentration at 13 h ([1]; patient A, 1 day): 6360 ng/mL
- concentration at 13 h ([1]; patient A, 2 days): 6340 ng/mL
- concentration at 48 h ([1]; patient A, 2 days): 2460 ng/mL
- concentration at 72 h ([1]; patient A): 2460 ng/mL
- concentration at 120 h ([1]; patient A): 2160 ng/mL
- concentration at 192 h ([1]; patient A): 2140 ng/mL
- concentration at 264 h ([1]; patient A): 2110 ng/mL
- concentration at 336 h ([1]; patient A): 3000 ng/mL
- concentration at 13 h ([1]; patient B, 1 day): 8900 ng/mL
- concentration at 13 h ([1]; patient B, 2 days): 7650 ng/mL
- concentration at 48 h ([1]; patient B, 2 days): 2680 ng/mL
- concentration at 72 h ([1]; patient B): 2820 ng/mL
- concentration at 120 h ([1]; patient B): 4140 ng/mL
- concentration at 192 h ([1]; patient B): 2050 ng/mL
- concentration at 264 h ([1]; patient B): 2480 ng/mL
- concentration at 336 h ([1]; patient B): 2800 ng/mL
- NK activity (%) (^51Cr-labelled K562; E/T ratio 10:1, after administration on the fourteenth day (before administration on the first day: 7.2)): 12.1%
- NK activity (%) (^51Cr-labelled K562; E/T ratio 20:1, after administration on the fourteenth day (before administration on the first day: 13.7)): 18.5%
- Degree of improvement on the fourteenth day Lassitude (patients with CFS; patient A): improved
- Degree of improvement on the fourteenth day Psychoneurotic symptom (patients with CFS; patient A): Improved
- Degree of improvement on the fourteenth day Weakness (patients with CFS; patient A): Improved
- Degree of improvement on the fourteenth day Lassitude (patients with CFS; patient B): improved
- Degree of improvement on the fourteenth day Psychoneurotic symptom (patients with CFS; patient B): Improved
- Degree of improvement on the fourteenth day Weakness (patients with CFS; patient B): Improved
